{"source": "patent US20090023775A1", "about": "“1-[2-(4-BENZYL-4-HYDROXY-PIPERIDIN-1 -YL )-ETHYL]-3-(2-METHYL-QUINOLIN- 4-YL)- UREA AS CRYSTALLINE SULFATE SALT” (Actelion Pharmaceuticals Ltd., priority 2004, published 2009)", "key": {"[1]": {"experiment": "Dynamic vapor sorption (DVS), gravimetric measurement under controlled relative humidity", "format": "physicochemical", "experimental": "X-ray diffraction patterns (XRD) were recorded on a Bruker D5000, using a Cu-Kalpha (1.5418 Å) source, a 40 kV -30 mA generator, in a range of 3 et 40° (2theta). DVS is performed as gravimetric measurement (10-30 mg of sample), at a given temperature, under controlled relative humidity. Measurements are performed on a SMS (Surface Measurement Systems) DVS 1000. First, the sample is dried (0% RH) under dry nitrogen at the experiment temperature. Then a cycle of relative humidity (RH) is applied to the sample (generally increase by steps e.g. 20, 40, 60 and 80% RH and decrease to 0% RH by the same steps). The duration of each step of RH is sufficient to reach a weight equilibrium.\nTable 2 summarizes the results of two cycles (0 to 85% relative humidity) in a DVS measurement (40° C.) of 1-[2-(4-benzyl-4-hydroxy-piperidin-1-yl)-ethyl]-3-(2-methyl-quinolin-4-yl)-urea sulfate trihydrate described in Example 1.\nTable 4 summarizes the results of three cycles (0 to 85% relative humidity) in a DVS measurement (25° C.) of 1-[2-(4-benzyl-4-hydroxy-piperidin-1-yl)-ethyl]-3-(2-methyl-quinolin-4-yl)-urea sulfate trihydrate described in Example 2."}, "[2]": {"experiment": "Behaviour of the free base at higher temperature and higher humidity", "format": "physicochemical", "description": "Therefore, the said compound of formula I as free base is not suitable as a pharmaceutical product since it is not easy to handle in pharmaceutical preparations. In addition, large scale production and storage of the said compound of formula I causes problems due to the properties mentioned above."}, "urotensin II receptor": {"target": "T1, urotensin II receptor (Homo sapiens, UniProt Q9UKP6)", "T1 sequence (Q9UKP6 1-389)": "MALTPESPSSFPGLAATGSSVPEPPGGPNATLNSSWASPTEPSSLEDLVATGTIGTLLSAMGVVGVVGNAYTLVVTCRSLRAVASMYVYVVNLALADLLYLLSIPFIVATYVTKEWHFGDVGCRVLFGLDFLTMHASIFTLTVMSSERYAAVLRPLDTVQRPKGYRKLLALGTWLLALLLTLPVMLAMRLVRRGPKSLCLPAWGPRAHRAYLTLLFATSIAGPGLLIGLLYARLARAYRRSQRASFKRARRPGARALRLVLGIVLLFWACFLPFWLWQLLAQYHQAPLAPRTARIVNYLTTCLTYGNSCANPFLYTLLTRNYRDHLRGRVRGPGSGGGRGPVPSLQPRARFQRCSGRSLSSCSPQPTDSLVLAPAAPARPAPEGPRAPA", "conditions": "Clozel et al., J. Pharmcol. Exp. Ther. 2004, 311, 204-212; cited from earlier work"}, "[3]": {"conditions": "DVS 25° C., Cycle 1, target RH 0.0%"}, "[4]": {"conditions": "DVS 25° C., Cycle 1, target RH 20.0%"}, "[5]": {"conditions": "DVS 25° C., Cycle 1, target RH 40.0%"}, "[6]": {"conditions": "DVS 25° C., Cycle 1, target RH 60.0%"}, "[7]": {"conditions": "DVS 25° C., Cycle 1, target RH 85.0%"}, "[8]": {"conditions": "DVS 25° C., Cycle 2, target RH 0.0%"}, "[9]": {"conditions": "DVS 25° C., Cycle 2, target RH 20.0%"}, "[10]": {"conditions": "DVS 25° C., Cycle 2, target RH 40.0%"}, "[11]": {"conditions": "DVS 25° C., Cycle 2, target RH 60.0%"}, "[12]": {"conditions": "DVS 25° C., Cycle 2, target RH 85.0%"}, "[13]": {"conditions": "DVS 25° C., Cycle 3, target RH 0.0%"}, "[14]": {"conditions": "DVS 25° C., Cycle 3, target RH 85.0%"}, "[15]": {"conditions": "DVS 40° C., Cycle 1, target RH 0.0%"}, "[16]": {"conditions": "DVS 40° C., Cycle 1, target RH 20.0%"}, "[17]": {"conditions": "DVS 40° C., Cycle 1, target RH 40.0%"}, "[18]": {"conditions": "DVS 40° C., Cycle 1, target RH 60.0%"}, "[19]": {"conditions": "DVS 40° C., Cycle 1, target RH 85.0%"}, "[20]": {"conditions": "DVS 40° C., Cycle 2, target RH 0.0%"}, "[21]": {"conditions": "DVS 40° C., Cycle 2, target RH 20.0%"}, "[22]": {"conditions": "DVS 40° C., Cycle 2, target RH 40.0%"}, "[23]": {"conditions": "DVS 40° C., Cycle 2, target RH 60.0%"}, "[24]": {"conditions": "DVS 40° C., Cycle 2, target RH 85.0%"}, "[25]": {"conditions": "higher temperature and higher humidity"}}, "data": [{"smiles": "Cc1cc(NC(=O)NCCN2CCC(O)(Cc3ccccc3)CC2)c2ccccc2n1.O.O.O.O=S(=O)(O)O", "note": "[Example 2, 1-[2-(4-Benzyl-4-hydroxy-piperidin-1-yl)-ethyl]-3-(2-methyl-quinolin-4-yl)-urea Sulfate Trihydrate]", "values": [{"measurement": "Change In Mass (%) Desorption", "setting": "[1]; [3]", "result": "−0.01", "unit": "%"}, {"measurement": "Change In Mass (%) Sorption", "setting": "[1]; [3]", "result": 0.00, "unit": "%"}, {"measurement": "Change In Mass (%) Desorption", "setting": "[1]; [4]", "result": 11.94, "unit": "%"}, {"measurement": "Change In Mass (%) Hysteresis", "setting": "[1]; [4]", "result": 0.57, "unit": "%"}, {"measurement": "Change In Mass (%) Sorption", "setting": "[1]; [4]", "result": 11.38, "unit": "%"}, {"measurement": "Change In Mass (%) Desorption", "setting": "[1]; [5]", "result": 12.31, "unit": "%"}, {"measurement": "Change In Mass (%) Hysteresis", "setting": "[1]; [5]", "result": 0.32, "unit": "%"}, {"measurement": "Change In Mass (%) Sorption", "setting": "[1]; [5]", "result": 12.00, "unit": "%"}, {"measurement": "Change In Mass (%) Desorption", "setting": "[1]; [6]", "result": 12.49, "unit": "%"}, {"measurement": "Change In Mass (%) Hysteresis", "setting": "[1]; [6]", "result": 0.08, "unit": "%"}, {"measurement": "Change In Mass (%) Sorption", "setting": "[1]; [6]", "result": 12.41, "unit": "%"}, {"measurement": "Change In Mass (%) Desorption", "setting": "[1]; [7]", "result": 12.70, "unit": "%"}, {"measurement": "Change In Mass (%) Sorption", "setting": "[1]; [7]", "result": 12.70, "unit": "%"}, {"measurement": "Change In Mass (%) Desorption", "setting": "[1]; [8]", "result": 0.00, "unit": "%"}, {"measurement": "Change In Mass (%) Sorption", "setting": "[1]; [8]", "result": "−0.01", "unit": "%"}, {"measurement": "Change In Mass (%) Desorption", "setting": "[1]; [9]", "result": 11.95, "unit": "%"}, {"measurement": "Change In Mass (%) Hysteresis", "setting": "[1]; [9]", "result": 0.43, "unit": "%"}, {"measurement": "Change In Mass (%) Sorption", "setting": "[1]; [9]", "result": 11.52, "unit": "%"}, {"measurement": "Change In Mass (%) Desorption", "setting": "[1]; [10]", "result": 12.32, "unit": "%"}, {"measurement": "Change In Mass (%) Hysteresis", "setting": "[1]; [10]", "result": 0.25, "unit": "%"}, {"measurement": "Change In Mass (%) Sorption", "setting": "[1]; [10]", "result": 12.06, "unit": "%"}, {"measurement": "Change In Mass (%) Desorption", "setting": "[1]; [11]", "result": 12.49, "unit": "%"}, {"measurement": "Change In Mass (%) Hysteresis", "setting": "[1]; [11]", "result": 0.07, "unit": "%"}, {"measurement": "Change In Mass (%) Sorption", "setting": "[1]; [11]", "result": 12.41, "unit": "%"}, {"measurement": "Change In Mass (%) Desorption", "setting": "[1]; [12]", "result": 12.70, "unit": "%"}, {"measurement": "Change In Mass (%) Sorption", "setting": "[1]; [12]", "result": 12.70, "unit": "%"}, {"measurement": "Change In Mass (%) Desorption", "setting": "[1]; [13]", "result": 0.08, "unit": "%"}, {"measurement": "Change In Mass (%) Sorption", "setting": "[1]; [13]", "result": 0.00, "unit": "%"}, {"measurement": "Change In Mass (%) Sorption", "setting": "[1]; DVS 25° C., Cycle 3, target RH 20.0%", "result": 11.55, "unit": "%"}, {"measurement": "Change In Mass (%) Sorption", "setting": "[1]; DVS 25° C., Cycle 3, target RH 40.0%", "result": 12.07, "unit": "%"}, {"measurement": "Change In Mass (%) Sorption", "setting": "[1]; DVS 25° C., Cycle 3, target RH 60.0%", "result": 12.40, "unit": "%"}, {"measurement": "Change In Mass (%) Desorption", "setting": "[1]; [14]", "result": 12.69, "unit": "%"}, {"measurement": "Change In Mass (%) Sorption", "setting": "[1]; [14]", "result": 12.69, "unit": "%"}]}, {"smiles": "Cc1cc(NC(=O)NCCN2CCC(O)(Cc3ccccc3)CC2)c2ccccc2n1.O.O.O.O=S(=O)(O)O", "note": "[Example 1, 1-[2-(4-Benzyl-4-hydroxy-piperidin-1-yl)-ethyl]-3-(2-methyl-quinolin-4-yl)-urea Sulfate Trihydrate]", "values": [{"measurement": "Change In Mass (%) Desorption", "setting": "[1]; [15]", "result": "−0.02", "unit": "%"}, {"measurement": "Change In Mass (%) Sorption", "setting": "[1]; [15]", "result": 0.00, "unit": "%"}, {"measurement": "Change In Mass (%) Desorption", "setting": "[1]; [16]", "result": 9.97, "unit": "%"}, {"measurement": "Change In Mass (%) Hysteresis", "setting": "[1]; [16]", "result": 0.26, "unit": "%"}, {"measurement": "Change In Mass (%) Sorption", "setting": "[1]; [16]", "result": 9.71, "unit": "%"}, {"measurement": "Change In Mass (%) Desorption", "setting": "[1]; [17]", "result": 10.26, "unit": "%"}, {"measurement": "Change In Mass (%) Hysteresis", "setting": "[1]; [17]", "result": 0.03, "unit": "%"}, {"measurement": "Change In Mass (%) Sorption", "setting": "[1]; [17]", "result": 10.23, "unit": "%"}, {"measurement": "Change In Mass (%) Desorption", "setting": "[1]; [18]", "result": 10.40, "unit": "%"}, {"measurement": "Change In Mass (%) Hysteresis", "setting": "[1]; [18]", "result": "−0.02", "unit": "%"}, {"measurement": "Change In Mass (%) Sorption", "setting": "[1]; [18]", "result": 10.42, "unit": "%"}, {"measurement": "Change In Mass (%) Desorption", "setting": "[1]; [19]", "result": 10.68, "unit": "%"}, {"measurement": "Change In Mass (%) Sorption", "setting": "[1]; [19]", "result": 10.68, "unit": "%"}, {"measurement": "Change In Mass (%) Desorption", "setting": "[1]; [20]", "result": "−0.02", "unit": "%"}, {"measurement": "Change In Mass (%) Sorption", "setting": "[1]; [20]", "result": "−0.02", "unit": "%"}, {"measurement": "Change In Mass (%) Desorption", "setting": "[1]; [21]", "result": 9.98, "unit": "%"}, {"measurement": "Change In Mass (%) Hysteresis", "setting": "[1]; [21]", "result": 0.17, "unit": "%"}, {"measurement": "Change In Mass (%) Sorption", "setting": "[1]; [21]", "result": 9.81, "unit": "%"}, {"measurement": "Change In Mass (%) Desorption", "setting": "[1]; [22]", "result": 10.28, "unit": "%"}, {"measurement": "Change In Mass (%) Hysteresis", "setting": "[1]; [22]", "result": 0.02, "unit": "%"}, {"measurement": "Change In Mass (%) Sorption", "setting": "[1]; [22]", "result": 10.26, "unit": "%"}, {"measurement": "Change In Mass (%) Desorption", "setting": "[1]; [23]", "result": 10.42, "unit": "%"}, {"measurement": "Change In Mass (%) Hysteresis", "setting": "[1]; [23]", "result": 0.01, "unit": "%"}, {"measurement": "Change In Mass (%) Sorption", "setting": "[1]; [23]", "result": 10.42, "unit": "%"}, {"measurement": "Change In Mass (%) Desorption", "setting": "[1]; [24]", "result": 10.68, "unit": "%"}, {"measurement": "Change In Mass (%) Sorption", "setting": "[1]; [24]", "result": 10.68, "unit": "%"}]}, {"smiles": "Cc1cc(NC(=O)NCCN2CCC(O)(Cc3ccccc3)CC2)c2ccccc2n1", "note": "[formula I, 1-[2-(4-Benzyl-4-hydroxy-piperidin-1-yl)-ethyl]-3-(2-methyl-quinolin-4-yl)-urea]", "values": [{"measurement": "hygroscopicity", "setting": "[2]", "result": "hygroscopic"}, {"measurement": "agglomeration", "setting": "[2]; [25]", "result": "agglomerates to a substance cake"}, {"measurement": "colour stability", "setting": "[2]; [25]", "result": "its colour changes at higher temperature and higher humidity"}, {"measurement": "urotensin II receptor antagonist activity", "setting": "urotensin II receptor", "result": "potent urotensin II receptor antagonist"}]}]}
